What all share (type): functional
Assay [1] deals with Staphylococcus aureus. Kind of assay: Antibacterial activity against methicillin-resistant Staphylococcus aureus 11 assessed as bacterial growth inhibition in presence of 50 ug/ml calcium ions by CLSI protocol based broth microdilution method. In general terms: Dilution methods test growth across graded concentrations, often in twofold steps.
Assay [2] relates to Staphylococcus aureus. Kind of assay: Antibacterial activity against methicillin-resistant Staphylococcus aureus 14 assessed as bacterial growth inhibition in presence of 50 ug/ml calcium ions by CLSI protocol based broth microdilution method.
The test system of assay [3] is Staphylococcus aureus. Kind of assay: Antibacterial activity against methicillin-resistant Staphylococcus aureus 86 assessed as bacterial growth inhibition in presence of 50 ug/ml calcium ions by CLSI protocol based broth microdilution method.
Assay [4] has as its system Staphylococcus aureus. Kind of assay: Antibacterial activity against methicillin-resistant Staphylococcus aureus 88 assessed as bacterial growth inhibition in presence of 50 ug/ml calcium ions by CLSI protocol based broth microdilution method.
Assay [5] has as its system Staphylococcus aureus. Kind of assay: Antibacterial activity against Staphylococcus aureus ATCC 29213 assessed as bacterial growth inhibition in presence of 50 ug/ml calcium ions by CLSI protocol based broth microdilution method.
Assay [6] deals with Enterococcus faecalis. Kind of assay: Antibacterial activity against Streptococcus faecalis assessed as bacterial growth inhibition in presence of 50 ug/ml calcium ions by CLSI protocol based broth microdilution method.
Assay [7] has as its system Enterococcus. Kind of assay: Antibacterial activity against Enterococcus 6 assessed as bacterial growth inhibition in presence of 50 ug/ml calcium ions by CLSI protocol based broth microdilution method.
For assay [8], the system named is Enterococcus. Kind of assay: Antibacterial activity against Enterococcus 60 assessed as bacterial growth inhibition in presence of 50 ug/ml calcium ions by CLSI protocol based broth microdilution method.
Assay [9] relates to Enterococcus faecalis. Kind of assay: Antibacterial activity against Enterococcus faecalis ATCC 29212 assessed as bacterial growth inhibition in presence of 50 ug/ml calcium ions by CLSI protocol based broth microdilution method.

Structures are written as SMILES. Bounds are passed on as bounds.

Data on 9 compounds can be found in ChEMBL document CHEMBL4619795, “Establishing the Structure-Activity Relationship of Daptomycin” (ACS Med Chem Lett, 2020).

For the compound `CCCCCCCCCC(=O)N[C@@H](Cc1c[nH]c2ccccc12)C(=O)N[C@@H](CC(N)=O)C(=O)N[C@@H](CC(=O)O)C(=O)N[C@@H]1C(=O)NCC(=O)N[C@@H](CC(=O)O)C(=O)N[C@@H](CC(=O)O)C(=O)N[C@H](C)C(=O)N[C@@H](CC(=O)O)C(=O)NCC(=O)N[C@H](CO)C(=O)N[C@@H]([C@@H](C)CC(=O)O)C(=O)N[C@@H](CC(=O)c2ccccc2N)C(=O)O[C@@H]1C`, the MIC – broadly, the smallest concentration in the dilution series that meets the test's criterion for growth inhibition – in the assay with Staphylococcus aureus [1] is at least 32 mg/L; in the assay on Staphylococcus aureus [2], at least 32 mg/L; in the assay on Staphylococcus aureus [3], 16 mg/L; in the assay on Staphylococcus aureus [4] it was 8 mg/L; with Staphylococcus aureus [5], 16 mg/L; in the assay on Enterococcus faecalis [6], at least 32 mg/L. Besides, the MIC with Enterococcus [7], with Enterococcus [8] and in the assay with Enterococcus faecalis [9] was at least 32 mg/L throughout.
In the case of `CCCCCCCCCC(=O)N[C@@H](Cc1c[nH]c2ccccc12)C(=O)N[C@@H](CC(N)=O)C(=O)N[C@@H](CC(=O)O)C(=O)N[C@@H]1C(=O)NCC(=O)N[C@@H](CCN)C(=O)N[C@@H](CC(=O)O)C(=O)N[C@H](C)C(=O)N[C@@H](CC(=O)O)C(=O)NCC(=O)N[C@H](CO)C(=O)N[C@@H]([C@@H](C)CC(=O)O)C(=O)N[C@@H](CC(=O)c2ccccc2N)C(=O)O[C@@H]1C`, the minimal inhibitory concentration (MIC) in the assay on Staphylococcus aureus [1] came out at 2 mg/L; with Staphylococcus aureus [2], 0.5 mg/L; in the assay with Staphylococcus aureus [3] it was 0.25 mg/L; in the assay on Staphylococcus aureus [4], 0.25 mg/L; in the assay on Staphylococcus aureus [5] it was 0.25 mg/L; in the assay with Enterococcus [7], 16 mg/L. Moreover, the MIC was found to be 8 mg/L in the assay on Enterococcus [8] and 16 mg/L with Enterococcus faecalis [9].
As for `CCCCCCCCCC(=O)N[C@@H](Cc1c[nH]c2ccccc12)C(=O)N[C@@H](CC(N)=O)C(=O)N[C@@H](CC(=O)O)C(=O)N[C@@H]1C(=O)NCC(=O)N[C@@H](CCC(=O)O)C(=O)N[C@@H](CC(=O)O)C(=O)N[C@H](C)C(=O)N[C@@H](CC(=O)O)C(=O)NCC(=O)N[C@H](CO)C(=O)N[C@@H]([C@@H](C)CC(=O)O)C(=O)N[C@@H](CC(=O)c2ccccc2N)C(=O)O[C@@H]1C`, the MIC in the assay on Staphylococcus aureus [1] is at least 32 mg/L; with Staphylococcus aureus [2], at least 32 mg/L; in the assay with Staphylococcus aureus [3], at least 32 mg/L; with Staphylococcus aureus [4] it was 16 mg/L; with Staphylococcus aureus [5], 16 mg/L; with Enterococcus faecalis [6], at least 32 mg/L. Further, the minimal inhibitory concentration (MIC) in the assay on Enterococcus [7], in the assay on Enterococcus [8] and in the assay on Enterococcus faecalis [9] was at least 32 mg/L in each case.
Turning to `CCCCCCCCCC(=O)N[C@@H](Cc1cccc2ccccc12)C(=O)N[C@@H](CC(N)=O)C(=O)N[C@@H](CC(=O)O)C(=O)N[C@@H]1C(=O)NCC(=O)N[C@@H](CCCN)C(=O)N[C@@H](CC(=O)O)C(=O)N[C@H](C)C(=O)N[C@@H](CC(=O)O)C(=O)NCC(=O)N[C@H](CO)C(=O)N[C@@H]([C@@H](C)CC(=O)O)C(=O)N[C@@H](CC(=O)c2ccccc2N)C(=O)O[C@@H]1C`, the MIC with Staphylococcus aureus [1] worked out at 1 mg/L; in the assay with Staphylococcus aureus [2] it was 0.25 mg/L; in the assay on Staphylococcus aureus [3], 0.25 mg/L; with Staphylococcus aureus [4], 0.125 mg/L; in the assay on Staphylococcus aureus [5], 0.25 mg/L; in the assay with Enterococcus faecalis [6], 0.5 mg/L. Besides, the MIC in the assay on Enterococcus [7], in the assay on Enterococcus [8] and in the assay on Enterococcus faecalis [9] was 2 mg/L throughout.
`CCCCCCCCCC(=O)N[C@@H](Cc1c[nH]c2ccccc12)C(=O)N[C@@H](CC(N)=O)C(=O)N[C@@H](CC(=O)O)C(=O)N[C@@H]1C(=O)NCC(=O)N[C@@H](CCCN)C(=O)N[C@@H](CC(=O)O)C(=O)N[C@H](C)C(=O)N[C@@H](C)C(=O)NCC(=O)N[C@H](CO)C(=O)N[C@@H]([C@@H](C)CC(=O)O)C(=O)N[C@@H](CC(=O)c2ccccc2N)C(=O)O[C@@H]1C`: the MIC with Staphylococcus aureus [1], in the assay on Staphylococcus aureus [2], in the assay with Staphylococcus aureus [3], in the assay on Staphylococcus aureus [4], with Staphylococcus aureus [5] and with Enterococcus faecalis [6] was at least 64 mg/L throughout. The MIC with Enterococcus [7], in the assay on Enterococcus [8] and in the assay on Enterococcus faecalis [9] was at least 64 mg/L in each case.
Take `C[C@H]1NC(=O)[C@H](CC(=O)O)NC(=O)[C@H](CCCN)NC(=O)CNC(=O)[C@@H](NC(=O)[C@H](CC(=O)O)NC(=O)[C@H](CC(N)=O)NC(=O)[C@H](Cc2c[nH]c3ccccc23)NC(=O)c2ccc(C#Cc3ccc(-c4ccccc4)cc3)cc2)[C@@H](C)OC(=O)[C@H](CC(=O)c2ccccc2N)NC(=O)[C@H]([C@@H](C)CC(=O)O)NC(=O)[C@@H](CO)NC(=O)CNC(=O)[C@H](CC(=O)O)NC1=O`: the MIC came out at 1 mg/L in the assay with Staphylococcus aureus [1]; 1 mg/L in the assay on Staphylococcus aureus [2]; 2 mg/L in the assay on Staphylococcus aureus [3]; 1 mg/L in the assay on Staphylococcus aureus [4]; 2 mg/L in the assay with Staphylococcus aureus [5]; 2 mg/L in the assay on Enterococcus faecalis [6]. Further, the MIC turned out to be 0.5 mg/L in the assay with Enterococcus [7], 2 mg/L in the assay on Enterococcus [8] and 0.5 mg/L in the assay with Enterococcus faecalis [9].
In the case of `CCCCCCCCCC(=O)N[C@@H](Cc1c[nH]c2ccccc12)C(=O)N[C@@H](CC(N)=O)C(=O)N[C@@H](CC(=O)O)C(=O)N[C@@H]1C(=O)NCC(=O)N[C@@H](CC(N)=O)C(=O)N[C@@H](CC(=O)O)C(=O)N[C@H](C)C(=O)N[C@@H](CC(=O)O)C(=O)NCC(=O)N[C@H](CO)C(=O)N[C@@H]([C@@H](C)CC(=O)O)C(=O)N[C@@H](CC(=O)c2ccccc2N)C(=O)O[C@@H]1C`, the MIC in the assay with Staphylococcus aureus [1], in the assay on Staphylococcus aureus [2], with Staphylococcus aureus [3], with Staphylococcus aureus [4], in the assay on Staphylococcus aureus [5] and in the assay with Enterococcus faecalis [6] was at least 32 mg/L in each case. In addition, the MIC in the assay on Enterococcus [7], in the assay on Enterococcus [8] and in the assay with Enterococcus faecalis [9] was at least 32 mg/L each time.
With `CCCCCCCCCC(=O)N[C@@H](Cc1c[nH]c2ccccc12)C(=O)N[C@@H](CC(N)=O)C(=O)N[C@@H](CC(=O)O)C(=O)N[C@@H]1C(=O)NCC(=O)N[C@@H](CCCN)C(=O)N[C@@H](CC(=O)O)C(=O)N[C@H](C)C(=O)N[C@@H](C(C)CC(=O)O)C(=O)NCC(=O)N[C@H](CO)C(=O)N[C@@H](C(C)CC(=O)O)C(=O)N[C@@H](CC(=O)c2ccccc2N)C(=O)O[C@@H]1C` (single isomer, unassigned), the MIC in the assay on Staphylococcus aureus [1], in the assay with Staphylococcus aureus [2], with Staphylococcus aureus [3], in the assay on Staphylococcus aureus [4], in the assay with Staphylococcus aureus [5] and with Enterococcus faecalis [6] was at least 32 mg/L in each case. For the same compound, the MIC in the assay on Enterococcus [7], in the assay on Enterococcus [8] and in the assay with Enterococcus faecalis [9] was at least 32 mg/L each time.
For `CCCCCCCCCC(=O)N[C@@H](Cc1c[nH]c2ccccc12)C(=O)N[C@@H](CC(N)=O)C(=O)N[C@@H](CC(=O)O)C(=O)N[C@@H]1C(=O)NCC(=O)N[C@@H](CN)C(=O)N[C@@H](CC(=O)O)C(=O)N[C@H](C)C(=O)N[C@@H](CC(=O)O)C(=O)NCC(=O)N[C@H](CO)C(=O)N[C@@H]([C@@H](C)CC(=O)O)C(=O)N[C@@H](CC(=O)c2ccccc2N)C(=O)O[C@@H]1C`, the MIC was 8 mg/L with Staphylococcus aureus [1]; 1 mg/L in the assay on Staphylococcus aureus [2]; 1 mg/L in the assay on Staphylococcus aureus [3]; 0.5 mg/L in the assay with Staphylococcus aureus [4]; 1 mg/L in the assay with Staphylococcus aureus [5]; at least 32 mg/L in the assay on Enterococcus [7]. In addition, the MIC was 8 mg/L with Enterococcus [8] and at least 32 mg/L in the assay on Enterococcus faecalis [9].
